Key:
Podosphaera leucotricha = assay: Podosphaera test (apple)/protective; format: in vivo; conditions: 240 h, protective, application rate 100 g/ha, evaluation 10 days after inoculation, read-out: % efficacy
Experimental: (§1) To produce a suitable preparation of active compound, 1 part by weight of active compound is mixed with the stated amounts of solvent and emulsifier, and the concentrate is diluted with water to the desired concentration.
(§2) To test for protective activity, young plants are sprayed with the preparation of active compound at the stated application rate. After the spray coating has dried on, the plants are inoculated with an aqueous spore suspension of the apple mildew pathogen Podosphaera leucotricha. The plants are then placed in a greenhouse at approximately 23° C. and a relative atmospheric humidity of approximately 70%.
(§3) Evaluation is carried out 10 days after the inoculation. 0% means an efficacy which corresponds to that of the control, whereas an efficacy of 100% means that no infection is observed.

Sphaerotheca fuiginea = assay: Sphaerotheca test (cucumber)/protective; format: in vivo; conditions: Cucumis sativus, 240 h, protective, application rate 100 g/ha, evaluation 10 days after inoculation, read-out: % efficacy
Experimental: as §1
as §2, with “Sphaerotheca fuiginea.” for “the apple mildew pathogen Podosphaera leucotricha.”
as §3

Alternaria solani = assay: Alternaria test (tomato)/protective; format: in vivo; conditions: protective, application rate 750 g/ha, evaluation 7 days after inoculation
Experimental: as §1
To test for protective activity, young tomato plants are sprayed with the preparation of active compound at the stated application rate. 1 day after the treatment, the plants are inoculated with a spore suspension of Alternaria solani and then remain at 100% rel. humidity and 20° C. for 24 h. The plants then remain at 96% rel. atmospheric humidity and a temperature of 20° C.
Evaluation is carried out 7 days after the inoculation. 0% means an efficacy which corresponds to that of the control, whereas an efficacy of 100% means that no infection is observed.

Puccinia recondita = assay: Puccinia test (wheat)/protective; format: in vivo; conditions: protective, application rate 250 g/ha, evaluation 10 days after inoculation
Experimental: as §1
To test for protective activity, young plants are sprayed with the preparation of active compound at the stated application rate. After the spray coating has dried on, the plants are sprayed with a conidia suspension of Puccinia recondita. The plants remain in an incubation cabin at 20° C. and 100% relative atmospheric humidity for 48 hours.
The plants are then placed in a greenhouse at a temperature of approximately 20° C. and a relative atmospheric humidity of 80% to promote the development of rust pustules.
as §3

[1] = system: Gloeophyllum trabeum, Coniophora puteana, Poria placenta, Lentinus tigrinus and Coriolus versicolor; assay: Inhibition test on giant colonies of Basidiomycetes; format: cell-based; conditions: 6 ppm active compound in malt extract peptone agar, 26° C.; read-out: % efficacy (percent inhibition of hyphal growth)
Experimental: Inhibition Test on Giant Colonies of Basidiomycetes Mycelium sections were removed from colonies of Gloeophyllum trabeum, Coniophora puteana, Poria placenta, Lentinus tigrinus and Coriolus versicolor and incubated on an agar medium containing malt extract peptone at 26° C. The inhibition of hyphal growth on active-compound-containing media was compared with the longitudinal growth on media without an addition of active compound and rated as percent inhibition.

Venturia inaequalis = assay: Venturia test (apple)/protective; format: in vivo; conditions: 288 h, protective, application rate 100 g/ha, evaluation 12 days after inoculation, read-out: % efficacy
Experimental: To produce a suitable preparation of active compound, 1 part by weight of active compound is mixed with the stated amount of solvent and emulsifier, and the concentrate is diluted with water to the desired concentration.
To test for protective activity, young plants are sprayed with the preparation of active compound at the stated application rate. After the spray coating has dried on, the plants are inoculated with an aqueous conidia suspension of the apple scab pathogen Venturia inaequalis and then remain in an incubation cabin at approximately 20° C. and 100% relative atmospheric humidity for 1 day.
The plants are then placed in a greenhouse at approximately 21° C. and a relative atmospheric humidity of approximately 90%.
Evaluation is carried out 12 days after the inoculation. 0% means an efficacy which corresponds to that of the control, whereas an efficacy of 100% means that no infection is observed.

[2] = logP by HPLC on reversed-phase column (C 18), EEC Directive 79/831 Annex V.A8; format: physicochemical; conditions: reversed-phase HPLC column (C 18); acidic range, pH 2.3, 0.1% aqueous phosphoric acid and acetonitrile, 43° C. (marked a)
Experimental: The logP values given in the Preparation Examples and Tables above were determined in accordance with EEC Directive 79/831 Annex V.A8 by HPLC (High Performance Liquid Chromatography) on a reversed-phase column (C 18). Temperature: 43° C.
In the acidic range, the determination was carried out at pH 2.3 using the mobile phases 0.1% aqueous phosphoric acid and acetonitrile; linear gradient from 10% acetonitrile to 90% acetonitrile (marked ^a) in the Table).
In the neutral range, the determination was carried out at pH 7.5 using the mobile phases 0.01 molar aqueous phosphate buffer solution and acetonitrile; linear gradient from 10% acetonitrile to 90% acetonitrile (marked ^b) in the Table).

SMILES	pest or weed control at 100 g/ha (Podosphaera leucotricha) [%]	pest or weed control at 100 g/ha (Sphaerotheca fuiginea) [%]	% efficacy (Alternaria solani) [%]	% efficacy (Puccinia recondita) [%]	Emax at 6 ppm [1] [%]	pest or weed control at 100 g/ha (Venturia inaequalis) [%]	chromatographic logP [2]
CO/N=C/c1ccc(-c2ccccc2NC(=O)c2c(C)nn(C)c2F)cc1 [Example 1, 5-fluoro-N-{4′-[(methoxyimino)methyl]-1,1′-biphenyl-2-yl}-1,3-dimethyl-1H-pyrazole-4-carboxamide]	100	100	95	100	100	100	
CO/N=C(\C)c1ccc(-c2ccccc2NC(=O)c2c(C)nn(C)c2F)cc1 [Example 4, 5-fluoro-N-[4′-(N-methoxyethaneimidoyl)-1,1′-biphenyl-2-yl]-1,3-dimethyl-1H-pyrazole-4-carboxamide]			90		100		
CO/N=C/c1ccc(-c2cccc(F)c2NC(=O)c2c(C)nn(C)c2F)cc1 [Example 9]				100	100		2.51
CO/N=C/c1ccc(-c2ccccc2NC(=O)c2c(C)nn(C)c2F)cc1F [Example 3, 5-fluoro-N-{3′-fluoro-4′-[(methoxyimino)methyl]-1,1′-biphenyl-2-yl}-1,3-dimethyl-1H-pyrazole-4-carboxamide]				100	100		

Reference: patent publication US7348350B2, “Pyrazolyl biphenyl carboxamides and the use thereof for controlling undesirable microorganisms” (Bayer CropScience AG, priority 2000, dated 2008)
